Experimental data as given in US12678423B2, “Therapeutic agent for amyotrophic lateral sclerosis and composition for treatment” (KEIO UNIVERSITY, priority 2016, dated 2026).

Key:
Format in all cases: cell-based, human
Conditions in all cases: final concentration 10 μM, added days 35 to 40
[1] = tested on: motor neurons induced to differentiate from iPS cells derived from ALS patients (FUS-ALS) having a mutation in FUS; assay: Ectopic localization of FUS protein in the cytoplasm, FUS-ALS motor neurons
From the text: Therefore, on day 40 from the start of differentiation induction, each differentiation-induced motor neuron in Example I-1 was immunostained and the localization of FUS protein in the cytoplasm was examined.
(§1) Using the differentiation-induced motor neurons in Example I-1, drugs which cause the ALS phenotype to be restored were screened from existing drug libraries with the neurite length, ectopic localization of FUS protein, stress granule formation, LDH leakage ratio, CV-caspase 3-positive ratio, phosphorylated TDP-43 protein inclusion formation, and the like as indices.
(§2) As a result of the screening, ropinirole was found as a promising therapeutic agent for ALS. Tables 5 and 6 show the improvement ratio (%) in the ALS phenotype due to adding ropinirole to the medium. Here, ropinirole was added to the medium on days 35 to 40 from the start of the differentiation induction of each iPS cell. Here, it is assumed that days 35 to 40 from the start of differentiation induction correspond to the early stage of the ALS disease.
(§3) The improvement ratio (%) of the ALS phenotype was calculated by Equation (1).
(§4) [formula] [In Equation (1), A represents a measurement value of motor neurons induced to differentiate from iPS cells derived from ALS patients in the absence of ropinirole, and B represents a measurement value of motor neurons induced to differentiate from iPS cells derived from ALS patients in the presence of ropinirole, and C represents a measurement value of motor neurons induced to differentiate from iPS cells derived from healthy subjects in the absence of ropinirole.]
(§5) Subsequently, in the same manner as above, the efficacy in cases of administering lower concentrations of ropinirole was evaluated.
(§6) Each drug was added to the medium at a final concentration of 10 μM.

[2] = tested on: motor neurons induced to differentiate from iPS cells derived from ALS patients (FUS-ALS) having a mutation in FUS; assay: LDH leakage ratio, FUS-ALS motor neurons
Procedure: (§7) The leakage amount of LDH into the medium is an indicator of cytotoxicity. For measurement of the LDH leakage ratio, a commercially available kit (model “LDH Cytotoxicity Detection Kit”, Takara Bio Inc.) was used.
(§8) Here, ropinirole was added to the medium on days 35 to 40 from the start of the differentiation induction of each iPS cell. Here, it is assumed that days 35 to 40 from the start of differentiation induction correspond to the early stage of the ALS disease.
as §3, §4, §5, §6

[3] = tested on: motor neurons induced to differentiate from iPS cells derived from ALS patients (TDP-43-ALS) having a mutation in TDP-43; assay: LDH leakage ratio, TDP-43-ALS motor neurons
Procedure: as §7, §8, §3, §4, §5, §6

[4] = tested on: motor neurons induced to differentiate from iPS cells derived from ALS patients (TDP-43-ALS) having a mutation in TDP-43; assay: Phosphorylated TDP-43 protein inclusion formation, TDP-43-ALS motor neurons
From the text: Therefore, on day 40 from the start of differentiation induction, each differentiation-induced motor neuron in Example I-1 was immunostained and the formation of phosphorylated TDP-43 protein inclusions was examined.
as §1, §2, §3, §4, §5, §6

[5] = tested on: motor neurons induced to differentiate from iPS cells derived from ALS patients (TDP-43-ALS) having a mutation in TDP-43; assay: Neurite length, TDP-43-ALS motor neurons (screening, Example I-8)
Procedure: (§9) For each differentiation-induced motor neuron in Example I-1, the changes over time in the neurite length were measured. A Bio station CT (Nikon Corp.) was used to measure the neurite length over time. FIG. 1 is a graph showing measurement results of changes over time in the neurite length. The vertical axis represents neurite length (relative value), and the horizontal axis represents the number of days of culturing from the start of differentiation induction.
as §1, §2, §3, §4, §5, §6

[6] = tested on: motor neurons induced to differentiate from iPS cells derived from ALS patients (FUS-ALS) having a mutation in FUS; assay: Stress granule formation (G3BP immunostaining), FUS-ALS motor neurons
Procedure: On day 40 from the start of differentiation induction, the formation of stress granules was examined using each differentiation-induced motor neuron in Example I-1. The detection of stress granules was performed by immunostaining with G3BP, which is a marker of stress granules.
as §1, §2, §3, §4, §5, §6

[7] = tested on: motor neurons induced to differentiate from iPS cells derived from ALS patients (FUS-ALS) having a mutation in FUS; assay: Neurite length, FUS-ALS motor neurons (screening, Example I-8)
Procedure: as §9, §1, §2, §3, §4, §5, §6

Row | Structure (SMILES) | Ectopic localization of FUS protein improvement ratio [1] | LDH leakage ratio improvement ratio [2] | LDH leakage ratio improvement ratio [3] | TDP-43 inclusion formation improvement ratio [4] | Neurite length improvement ratio [5] | Stress granule formation improvement ratio [6] | Neurite length improvement ratio [7]
1 | CC1=NN(c2ccccc2)C(=O)C1 [Edaravone] | 20.4% | 12.4% | 23.2% | 11.6% | 14.2% | 19.8% | 15.9%
2 | CO/N=C(\C(=O)N[C@@H]1C(=O)N2C(C(=O)O)=C(CSc3nc(=O)c(=O)[nH]n3C)CS[C@H]12)c1csc(N)n1 [Ceftriaxone] | 22.6% | 21.2% | 15.1% | 35.4% | 20.4% | 11.0% | 36.3%
